Laboratory results from publication PMC5471438, “Linaclotide activates guanylate cyclase‐C/cGMP/protein kinase‐II‐dependent trafficking of CFTR in the intestine” (Physiological Reports, 2017).
Entries after “also recorded” stand apart in the source; their conditions may differ.

Tests used:
[1] = system: rat proximal colonic mucosa; set-up: method as in 2 sources, one per row (each row's own in cited_ref): ref Tchernychev et al. 2015 ||| ref Vaandrager et al. 1997; details: rat proximal colon / colonic epithelium; ref Tchernychev et al. 2015; read-out: EC50 for transepithelial ion current; cited from earlier work
CFTR [2] = assay: Surface biotinylation of CFTR in T84 cells; type: cell-based, human; details: linaclotide 1 μmol/L and 3.27 μmol/L, 30 min
GC‐C [3] = details: ref Bryant et al. 2010; Busby et al. 2010; cited from earlier work
Source text: The synthetic GC‐C agonist peptide, linaclotide, is an FDA‐approved drug for adult patients with Irritable Bowel Syndrome with Constipation (IBS‐C) and Chronic Idiopathic Constipation (CIC) (Bryant et al. 2010; Busby et al. 2010). IBS‐C is a highly prevalent, chronic functional gastrointestinal disorder with a global prevalence estimated to range from 5% to 20% (Mayer 2008; Quigley et al. 2012).

C2BBe cells = assay: cGMP synthesis in C2BBe cells; type: cell-based, human
CFTR [4] = assay: Surface biotinylation of CFTR in rat jejunum enterocytes after in vivo loop treatment; details: linaclotide 5 μg/mL/loop, 30 min in vivo, vs saline and untreated, mean ± SEM (n = 4)
GC‐C/cGMP pathway = details: modulated by MRP4; ref Tchernychev et al. 2015; cited from earlier work
Source text: The cystic fibrosis transmembrane conductance regulator (CFTR) is a cyclic adenosine monophosphate (cAMP) and cGMP‐regulated anion‐selective channel that is expressed on the apical domain of intestinal epithelial cells where it serves as the main conductive pathway for Cl^− and HCO3 ^− ions transported across the membrane into the lumen (Riordan et al. 1989; Anderson et al. 1991; Vaandrager et al. 1997).

rat jejunum = assay: Fluid secretion in ligated rat jejunal loops in vivo; set-up: species or system rat (Sprague–Dawley); details: linaclotide 5 μg/mL/loop, 30 min, vs saline (1 mL)
Description: All animal studies were approved by the Institutional Animal Care and Use Committee of Yale University School of Medicine. Briefly, male Sprague–Dawley rats (200–250 g, Charles River Laboratories) were fasted overnight with access to drinking water ad libitum. Anesthesia was performed with Inactin® (Thiobutabarbital sodium salt hydrate, 120 mg/kg/i.p.). The jejunal, ileal, and proximal colonic loops (5 cm length) were prepared using sutures. Loops were instilled either with normal saline (pH7.4, 37°C) (1 mL/loop) or linaclotide (5 μg/mL/loop) for 30 min. At the end of the study, animals were euthanized with Inactin (200 mg/kg/i.p.).
The guanylate cyclase‐C (GC‐C) agonist linaclotide stimulates the production and accumulation of intracellular cGMP, which acts as a second messenger to enhance fluid secretion in the intestine (Schulz et al. 1990; Busby et al. 2013). We first tested whether linaclotide can enhance fluid secretion in vivo in the rat small intestine. Following anesthesia and laparotomy, intestinal loops were created in rat jejunum and injected either with vehicle (saline, 1 mL) or linaclotide (5 μg/1 mL). […] In this study, we examined whether linaclotide treatment also stimulates fluid secretion by recruiting CFTR to the apical surface of rat jejunum enterocytes in vivo. […]

[5] = system: rat proximal colonic mucosa; assay: Transepithelial short circuit current (Isc) across rat proximal colonic mucosa, Ussing chamber; set-up: species or system rat (Sprague–Dawley); details: rat proximal colonic mucosa, linaclotide 6 nmol/L and 100 nmol/L, apical; mean ± SEM (n = 4)
GC‐C [6] = assay: cGMP in human intestinal mucosa tissues and supernatants; details: human jejunum, ileum, ascending colon mucosa, linaclotide 1 μmol/L, 30 and 60 min, 37°C, IBMX 1 mmol/L, EIA, mean ± SD (n = 4)
[7] = Stability of linaclotide in human mucosa tissue supernatants by LC-MS; details: human intestinal mucosa supernatants, 1 μmol/L, 30 and 60 min incubation, 37°C
human colonic mucosa = assay: Transepithelial short circuit current (Isc) across human ascending colonic mucosa, Ussing chamber; details: human ascending colon, linaclotide 30 nmol/L and 1000 nmol/L, apical, pH 7.4, 37°C; mean ± SEM (n = 12)
cGKII (PKGII) [8] = assay: VASP Ser239 phosphorylation in T84 cells, Western blot; type: cell-based, human; details: linaclotide 1 and 3.27 μmol/L, 30 min, 8Br‐cGMP 0.2 and 1 mmol/L positive control
Description: (§1) C2BBe or T84 cells were homogenized in TGH lysis buffer [25 mmol/L HEPES, 10% (vol/vol) glycerol, 1% (vol/vol) Triton‐ × 100, pH 7.4] containing protease inhibitors (10 nmol/L iodoacetamide, 1 mmol/L phenylmethylsulfonyl fluoride (PMSF), 2 μg/mL leupeptin) for 30 min on ice. Homogenates were solubilized, subject to centrifugation at 13,200 g for 15 min at 4°C, and cleared supernatants were recovered. Protein concentration of the supernatant was determined with Coomassie Protein Assay Reagent (Pierce) and samples prepared and analyzed as described (Kravtsov et al. 2016). Quantification of surface‐labeled proteins was performed with Quantity One image analysis software.
(§2) VASP was originally characterized as a substrate for both PKG (cGMP‐dependent kinase) and PKA (cAMP‐dependent kinase). […] To determine linaclotide‐induced activation of cGKII, we determined the phosphorylation of VASP^Ser239 30 min following treatment either with vehicle or linaclotide (1 μmol/L and 3.27 μmol/L; the 3.27 μmol/L concentration is equivalent to the 5 μg dose of linaclotide that was used in vivo in the rat jejunum loop). The membrane permeant cGMP analog, 8 Br‐cGMP (0.2 mmol/L, 1 mmol/L), was used as a positive control.

cGKII (PKGII) [9] = assay: VASP Ser239 phosphorylation in C2BBe cells, Western blot; type: cell-based, human; details: linaclotide 1 and 3.27 μmol/L, 30 min, 8Br‐cGMP 0.2 and 1 mmol/L positive control
Description: as §1, §2

T84 cells = assay: cGMP synthesis in T84 cells; type: cell-based, human
CFTR [10] = assay: Surface biotinylation of CFTR in C2BBe cells; type: cell-based, human; details: linaclotide 1 μmol/L and 3.27 μmol/L, 30 min
[11] = IBMX 1 mmol/L 10 min, linaclotide 0.001–10 μmol/L 30 min, 37°C, pH 7, cGMP in supernatants by LC/MS/MS, n = 4
[12] = linaclotide 0.001–10 μmol/L, 30 min, IBMX 1 mmol/L

Substance: linaclotide
- EC50 [1]: 9.2 nM
- CFTR recruitment to cell surface (CFTR [2]): increased cell surface CFTR levels; also recorded: robust recruitment of CFTR to the apical surface; also recorded: robust increase in surface levels of CFTR compared to untreated control cells
- fluid secretion (GC‐C [3]): increased fluid secretion
- intestinal transit (GC‐C [3]): accelerated intestinal transit
- EC80 for cGMP synthesis (approximate) (C2BBe cells): ~1000 nM
- EC100 for cGMP synthesis (approximate) (C2BBe cells): ~3 µmol/L
- EC50 (C2BBe cells; [11]): 523 nM
- cGMP synthesis (C2BBe cells; [12]): concentration dependently stimulated cGMP synthesis
- surface CFTR (surface biotinylation, Western blot) (CFTR [4]): highest levels of surface CFTR; also recorded: robust increase in surface CFTR when compared to the untreated intestine
- transepithelial electrolyte secretion (GC‐C/cGMP pathway): increased transepithelial electrolyte secretion across the mucosa
- fluid secretion in jejunal loop (rat jejunum): robust fluid secretion; also recorded: distended and tightly filled with fluid; also recorded: robust increase in fluid accumulation in jejunum loops
- linaclotide-induced transepithelial ion current (Isc) [5]: induced a transepithelial ion current at both concentrations
- cGMP level in supernatant (extracellular) (GC‐C [6]): greater after 30 min, compared to levels measured after 60 min
- cGMP level in tissue (intracellular) (GC‐C [6]): greater after 30 min, compared to levels measured after 60 min
- cGMP level in supernatant (extracellular) (GC‐C [6]; listed as Linaclotide): increased levels of both intracellular and extracellular cGMP
- cGMP level in tissue (intracellular) (GC‐C [6]; listed as Linaclotide): increased levels of both intracellular and extracellular cGMP
- stability of linaclotide in tissue supernatants [7]: stable under these conditions
- linaclotide-induced transepithelial ion current (Isc) (human colonic mucosa): induced transepithelial ion current at concentrations of 30 nmol/L and 1000 nmol/L
- phosphorylation of VASP Ser239 (cGKII (PKGII) [8]): more robust phosphorylation of VASP^Ser239 compared to 8Br‐cGMP; also recorded: higher levels of VASP^Ser239 phosphorylation compared to the lower concentration
- phosphorylation of VASP Ser239 (cGKII (PKGII) [8]; listed as Linaclotide): more strongly enhanced phosphorylation of VASP^Ser239 compared to the cGMP analog 8‐Br‐cGMP
- phosphorylation of VASP Ser239 (cGKII (PKGII) [9]): more robust phosphorylation of VASP^Ser239 compared to 8Br‐cGMP; also recorded: higher levels of VASP^Ser239 phosphorylation compared to the lower concentration
- phosphorylation of VASP Ser239 (cGKII (PKGII) [9]; listed as Linaclotide): more strongly enhanced phosphorylation of VASP^Ser239 compared to the cGMP analog 8‐Br‐cGMP
- EC80 for cGMP synthesis (approximate) (T84 cells): ~1000 nM
- EC100 for cGMP synthesis (approximate) (T84 cells): ~3 µmol/L
- EC50 (T84 cells; [11]): 772 nM
- cGMP synthesis (T84 cells; [12]): concentration dependently stimulated cGMP synthesis
- CFTR recruitment to cell surface (CFTR [10]): increased cell surface CFTR levels; also recorded: robust recruitment of CFTR to the apical surface; also recorded: robust increase in surface levels of CFTR compared to untreated control cells; also recorded: higher surface CFTR levels in C2BBe cells compared to T84 cells
